“Also recorded” adds a separate entry of the source.
Columns and labels:
[1] = Blood-brain barrier crossing of the EZH2 inhibitor, orthotopic PDX model; format: in vivo
Text: (§1) 2.1. […] One such epigenetic regulator is the Polycomb Repressor Complex 2 (PRC2), a critical family protein that is essential for maintaining the self-renewal ability of adult and embryonic stem cells^22, 23. This complex is involved in transcription silencing via chromatin compaction by catalyzing the methylation of the histone H3 at lysine 27. The catalytic subunit of the PRC2 complex, Enhancer Of Zeste 2 (EZH2), has been linked to aggressive progression of multiple cancers, including GBMs^24 25. The function of EZH2 is closely related to the cancer stem cell (CSC) phenotype, mesenchymal transition and radioresistance, which is associated with post-surgery relapse of GBM^24-26. However, its role in promoting chemoresistance properties in GBM is yet to be investigated. To this end, we have examined the role of the EZH2-PRC2 complex in promoting TMZ resistance.

GBM flank model = experiment: GBM flank model, tumor growth, EZH2 inhibitor plus TMZ; format: in vivo
Text: FIG. 1A-1D. ARL13B is a downstream target for EZH2 non-canonical function. A) EZH2 expression is elevated during (day 3-D3) and post (D18) TMZ therapy. Therapy resistant glioma stem cell (CD133+) express high EZH2 post therapy (left). […] C) To examine the role of non-canonical function in TMZ resistance GBM43 (proneural) and GBM6 (Classical) PDX GBM treated with TMZ or TMZ+EZH2 inhibitor and subject to RNAseq analysis. […] We identified ARL13B as the top hit from this screen. D) shRNA mediated knockdown of EZH2 leads to downregulation of ARL13B.
as §1, with “To this end, we have examined the role of the EZH2-PRC2 complex in promoting TMZ resistance.” left out

[2] = patients; cited from earlier work
[3] = tested on: ARL13B knocked out GBM lines; experiment: DNA damage by H2X foci in ARL13B knockout/knockdown GBM cells treated with TMZ; format: cell-based; conditions: ARL13B knockout/knockdown cells vs control cells, both exposed to TMZ
Experimental: (§2) FIG. 5A-5D. Removal of ARL13B sensitizes GBM to TMZ therapy. […] B) Quantitative measure of H2X foci of different conditions counted in 100 cells. C) and D) shRNA mediated knockdown of ARL13B PDX lines were implanted in the nu/nu mice intracranially. After tumor establishment (7 days post implantation measured by BLI) animals were treated with suboptimal dose of TMZ (2.5 mg/kg) for 5 consecutive days. Animals were monitored for endpoint survival. C) GBMS PDX which is a mesenchymal subtype and D) GBM6, a classical subtype.
Creation of this alkylated purine causes a base pair mismatch in DNA (G-T) which results in DNA damage and cell cycle arrest and apoptosis (PMID: 15322239). Because of the nature of temozolomide chemotherapy-induced DNA damage, we chose to examine whether or not salvage pathway synthesis carried an implicit sensitivity to this alkylating chemotherapy. […] However, it did decrease the utilization of the salvage pathway by roughly 50%. Next, we subjected our ARL13B knockout cells to a standard dose of Temozolomide chemotherapy and checked whether they had more DNA double-stranded breaks by utilizing gamma h2ax foci counting. […]
2.6. […] After tumor engraftment animals were treated with vehicle control or TMZ (2.5 mg/kg) for 5 consecutive days and animals were monitored by endpoint survival. […]

[4] = tested on: ARL13B knockdown PDX GBM (GBM5, GBM6); experiment: Intracranial ARL13B knockdown PDX xenografts treated with TMZ, endpoint survival; format: in vivo, nu/nu mice; conditions: TMZ 2.5 mg/kg for 5 days
Experimental: as §2
2.6. ARL13B KD enhances the therapeutic efficacy of TMZ both in vitro and in vivo: The monofunctional DNA-alkylating agent TMZ is a commonly used chemotherapeutic drug and the gold standard of treatment for GBM. Although the activity of the DNA repair enzyme O6-methylguanine-DNA methyltransferase (MGMT) has been identified as the critical modulator to determine the GBM sensitivity to TMZ, all GBMs, even those with MGMT inactivation, eventually stop responding to TMZ. This begs question whether an alternative mechanism of resistance may be involved in GBM. The anti-GBM activity of TMZ is predominately provoked by O6-methylguanine-DNA adducts. […] After tumor engraftment animals were treated with vehicle control or TMZ (2.5 mg/kg) for 5 consecutive days and animals were monitored by endpoint survival. […]

Glioblastoma (GBM) = conditions: combined with radiotherapy after surgery; cited from earlier work
salvage pathway = experiment: [3H]-hypoxanthine isotope tracing, salvage purine biosynthesis; format: cell-based; conditions: cells with endogenous ARL13B; listed as temozolomide
Experimental: (§3) FIG. 4A-4E. IMPDH2-ARL13B interaction during TMZ therapy influences purine biosynthesis. A) Schematic diagram of purine biosynthesis. Isotope tracing analysis performed with ^14C glycine for de novo and ^3H hypoxanthine for salvage pathway. […] D)^14C glycine incorporation via de novo synthesis of the DNA and RNA with or without TMZ therapy in the presence and absence of ARL13B. U251 GBM cells were pulsed for 6 h with ^14C glycine, DNA and RNA were isolated, and ^14C incorporation was measured by […]. E) ^3H hypoxanthine incorporation via salvage pathway.
2.5. The ARL13B-IMPDH2 interaction during TMZ therapy alters the path to purine biosynthesis: IMPDH controls the gateway to purine nucleotides, by analyzing the rate-limiting reaction of de novo GTP biosynthesis at the inosine monophosphate (IMP) metabolic branch point^36 (FIG. 4A). This critical reaction appears to be present in every organism. Alternatively, purine bases, released by hydrolytic degradation of nucleic acids and nucleotides, can be salvaged and recycled. This is an energy-saving pathway for purine biosynthesis, and its inefficiency can result in many pathological conditions including Lesch-Nyhan syndrome^37. In cancer, rapid cell division results in a high demand for purine nucleotides that generally cannot be sustained by salvage pathways, which may explain the importance of IMPDH in cancer^14, 38. […]

de novo pathway = experiment: [14C]-glycine isotope tracing, de novo purine biosynthesis; format: cell-based; conditions: for de novo pathway activity during TMZ therapy: cells with endogenous ARL13B
Experimental: as §3
2.5. The ARL13B-IMPDH2 interaction during TMZ therapy alters the path to purine biosynthesis: IMPDH controls the gateway to purine nucleotides, by analyzing the rate-limiting reaction of de novo GTP biosynthesis at the inosine monophosphate (IMP) metabolic branch point^36 (FIG. 4A). This critical reaction appears to be present in every organism. Alternatively, purine bases, released by hydrolytic degradation of nucleic acids and nucleotides, can be salvaged and recycled. This is an energy-saving pathway for purine biosynthesis, and its inefficiency can result in many pathological conditions including Lesch-Nyhan syndrome^37. In cancer, rapid cell division results in a high demand for purine nucleotides that generally cannot be sustained by salvage pathways, which may explain the importance of IMPDH in cancer^14, 38. This information, combined with our finding of a direct interaction between ARL13B and IMPDH2 during TMZ therapy, allows us to postulate that such an interaction may be playing a role in regulation of purine biosynthesis pathway. To investigate further, we first performed [^14C]-glycine (de novo) and [^3H]-hypoxanthine (salvage) pulse-chase study during therapy, which allowed us to measure the activity of specific purine biosynthesis pathways^39 (FIG. 4A). […] Moreover, removal or ARL13B enhanced the salvage activity about 5-fold (FIG. 4E, p<0.0005). Based on this, we conclude that ARL13B may act as a negative regulator for the salvage pathway and is play a role in therapy-induced switch of the purine biosynthesis.

IMPDH2 = IMPDH2 enzymatic activity, formazin reduction assay; format: biochemical; conditions: over 8 days of TMZ exposure (p<0.001)
Text: (§4) Glioblastoma, a universally lethal primary brain tumor, harnesses cellular plasticity to drive therapeutic adaptation. Critical factors in developing this plasticity are histone modifiers such as Polycomb Repressor Complex 2 protein EZH2. […] Concurrently, we observed an increase in H3K27ac at the transcription start site of ARL13B as well as a lack of H3K27 tri-methylation, EZH2's canonical histone mark. Based on this we hypothesize that EZH2 could be non-canonically regulating ARL13B to allow for cellular plasticity and ultimately drive therapeutic adaptation. […] Searching for a mechanism behind this survival benefit, we preformed mass spectrometry on an ARL13B pulldown in a patient derived xenograft line during TMZ therapy and identified inosine monophosphate dehydrogenase 2 (IMPDH2), the rate-limiting enzyme in de-novo guanine nucleotide biosynthesis, as a significant binding partner of ARL13B during TMZ chemotherapy (p-value<0.0001). Probing this novel interaction further we examined the de-novo and salvage purine biosynthesis pathways using radiolabeled carbon tracing experiments. […] This synthesis shift forces cells to uptake and incorporate purines that have been alkylated by TMZ therapy which increases DNA double strand breaks and ultimately impairs therapeutic adaptation.

orthotopic GBM43 = experiment: Orthotopic PDX GBM mouse model, endpoint survival, IMPDH inhibitor with TMZ; format: in vivo, Mice; conditions: for survival benefits in vivo and vitro models: mouse
Experimental: (§5) FIG. 10A-10C. […] A) Pictorial representation of cell viability post therapy. B) Cell viability measured by trypan blue exclusion method. C) Mice with orthotopic GBM43 treated with vehicle DMSO, TMZ 2.5 mg/kg for 5 days, MMF (20 mg/kg for 4 days and in combination and monitored by endpoint survival.
as §4

EAE and stroke = conditions: cited from earlier work
PDX GBM lines = experiment: Cell viability of PDX GBM lines post therapy, trypan blue exclusion; format: cell-based; conditions: CellCept combined with TMZ
Experimental: as §5

[5] = in vivo; cited from earlier work
IMPDH = conditions: cited from earlier work

With CCCc1cc(C)[nH]c(=O)c1CNC(=O)c1cc(-c2ccc(N3CCN(C(C)C)CC3)nc2)cc2c1cnn2C(C)C [EZH2 inhibitor] the “crossing of the blood-brain barrier” value [1] was “failed to cross the blood-brain barrier” and the “tumor growth / therapeutic efficacy of TMZ in flank model” value (GBM flank model) was “can block the tumor growth; also recorded: significantly enhanced the therapeutic efficacy of TMZ”.

In the case of Cn1nnc2c(C(N)=O)ncn2c1=O [TMZ, 3,4-dihydro-3methyl-4-oxoimidazo[5,1-d]-1,2,3,5-tetrazine-8-carboxamide], the “peak cerebral spinal fluid and serum concentrations” value [2] is given as 50 µM, the “DNA damage / double-strand breaks (H2X foci)” value [3] is given as “robust increase in DNA double-strand breaks; also recorded: significantly elevated DNA damage” and the “DNA damage / double-strand breaks (H2X foci)” value ([3]; listed as Temozolomide) is given as “significantly more foci”. For the same compound, the “improvement in overall survival compared to control” value ([4]; classical subtype GBM6, ARL13B KD) was 39%, the “animals that did not develop any tumor” value ([4]; mesenchymal subtype, ARL13B KO GBM) was 80% and the “improvement of overall survival time” value (Glioblastoma (GBM)) was 4-6 months. For the same compound, the “decrease of salvage pathway activity during TMZ therapy” value (salvage pathway) was “roughly 50%”, the “decrease of de novo pathway usage in a TMZ specific manner” value (de novo pathway; ARL13B knockdown / removal) was “about 50%” and the “de novo pathway activity in a TMZ-specific manner” value (de novo pathway; ARL13B knocked-out cells) was “inhibited in a TMZ-specific manner; also recorded: reduced significantly in a TMZ-specific manner”. For the same compound, the “de novo pathway activity during TMZ therapy” value (de novo pathway) was “remained unchanged; also recorded: did not alter the de novo synthesis pathway”, the “de novo pathway activity during TMZ therapy” value (de novo pathway; listed as temozolomide) was “did not statistically change” and the IMPDH2 enzymatic activity (IMPDH2) was “decrease in activity”.

For NC(=O)c1ncn([C@@H]2O[C@H](CO)[C@@H](O)[C@H]2O)c1O [Mizoribine, mizoribine], the “survival benefits in vivo and vitro models” value (orthotopic GBM43) was “robust survival benefits”.

In the case of COc1c(C)c2c(c(O)c1C/C=C(\C)CCC(=O)OCCN1CCOCC1)C(=O)OC2 [CellCept, mycophenolic mofetil], the “neuroprotection against inflammatory conditions” value (EAE and stroke) is listed as “promoted neuroprotection”, the “sensitization to TMZ therapy in vitro” value (PDX GBM lines) is listed as “sensitizes PDX GBM lines to TMZ therapy; also recorded: significantly improved the therapeutic efficacy of TMZ-based anti-GBM chemotherapy” and the “therapeutic efficacy of TMZ-based chemotherapy, animal model” value (orthotopic GBM43; CellCept combined with TMZ, PDX model (FIG. 10)) is listed as “corporation between CellCept and TMZ; also recorded: significantly improved the therapeutic efficacy of TMZ-based anti-GBM chemotherapy”. The “survival benefits in vivo and vitro models” value (orthotopic GBM43) was “robust survival benefits”, the median survival (orthotopic GBM43; orthotopic PDX mouse model, only when in combination with TMZ (p<0.01)) was “significantly extended median survival” and the “crossing of the blood-brain barrier (BBB)” value [5] was “ability to cross the blood-brain barrier”.

In the case of CC[C@H](CC#N)OC(=O)N[C@@H](C)c1cccc(NC(=O)Nc2ccc(-c3cnco3)c(OC)c2)c1 [AVN944], the “IMPDH activity as compared to CellCept” value (IMPDH) is given as “enhanced IMPDH activity as compared to CellCept”.

— patent US11786542B2, “Methods for enhancing cytotoxic cancer therapy through modulation of purine biosynthesis pathways” (NORTHWESTERN UNIVERSITY, priority 2019, dated 2023)
